{"source": "the NIST ThermoML archive (doi:10.1016/j.jct.2017.03.006)", "assay": "xn = mol fraction of the nth substance listed", "details": "Liquid; for mass density: Vibrating tube method; for viscosity: Concentric cylinders viscometry", "note": "± gives the expanded uncertainty stated by the source."}
{"molecule": "Cc1ccc(C)c(C)c1", "note": "[1,2,4-trimethylbenzene] + CCCCO", "values": [{"measurement": "mass density", "setting": "273.15 K, 60000 kPa, x2 = 0.1005", "value": "917.1 ± 0.7", "unit": "kg/m3"}, {"measurement": "mass density", "setting": "273.15 K, 60000 kPa, x2 = 0.2261", "value": "910.9 ± 0.7", "unit": "kg/m3"}, {"measurement": "mass density", "setting": "273.15 K, 60000 kPa, x2 = 0.2999", "value": "907.2 ± 0.8", "unit": "kg/m3"}, {"measurement": "mass density", "setting": "273.15 K, 60000 kPa, x2 = 0.3966", "value": "901.8 ± 0.8", "unit": "kg/m3"}, {"measurement": "mass density", "setting": "273.15 K, 60000 kPa, x2 = 0.5289", "value": "894.1 ± 0.8", "unit": "kg/m3"}, {"measurement": "mass density", "setting": "273.15 K, 60000 kPa, x2 = 0.6367", "value": "887 ± 0.8", "unit": "kg/m3"}, {"measurement": "mass density", "setting": "273.15 K, 60000 kPa, x2 = 0.7249", "value": "880.8 ± 0.8", "unit": "kg/m3"}, {"measurement": "mass density", "setting": "273.15 K, 60000 kPa, x2 = 0.7977", "value": "875.2 ± 0.8", "unit": "kg/m3"}, {"measurement": "mass density", "setting": "273.15 K, 60000 kPa, x2 = 0.9131", "value": "865.5 ± 0.8", "unit": "kg/m3"}, {"measurement": "mass density", "setting": "273.15 K, 70000 kPa, x2 = 0", "value": "926.2 ± 0.7", "unit": "kg/m3"}, {"measurement": "mass density", "setting": "273.15 K, 70000 kPa, x2 = 0.1005", "value": "921.4 ± 0.8", "unit": "kg/m3"}, {"measurement": "mass density", "setting": "273.15 K, 70000 kPa, x2 = 0.2261", "value": "915.1 ± 0.8", "unit": "kg/m3"}, {"measurement": "mass density", "setting": "273.15 K, 70000 kPa, x2 = 0.2999", "value": "911.4 ± 0.8", "unit": "kg/m3"}, {"measurement": "mass density", "setting": "273.15 K, 70000 kPa, x2 = 0.3966", "value": "906.1 ± 0.8", "unit": "kg/m3"}, {"measurement": "mass density", "setting": "273.15 K, 70000 kPa, x2 = 0.5289", "value": "898.5 ± 0.8", "unit": "kg/m3"}, {"measurement": "mass density", "setting": "273.15 K, 70000 kPa, x2 = 0.6367", "value": "891.4 ± 0.8", "unit": "kg/m3"}, {"measurement": "mass density", "setting": "273.15 K, 70000 kPa, x2 = 0.7249", "value": "885.2 ± 0.8", "unit": "kg/m3"}, {"measurement": "mass density", "setting": "273.15 K, 70000 kPa, x2 = 0.7977", "value": "879.7 ± 0.8", "unit": "kg/m3"}, {"measurement": "mass density", "setting": "273.15 K, 70000 kPa, x2 = 0.9131", "value": "870.1 ± 0.8", "unit": "kg/m3"}, {"measurement": "mass density", "setting": "273.15 K, 80000 kPa, x2 = 0", "value": "930.3 ± 0.8", "unit": "kg/m3"}, {"measurement": "mass density", "setting": "273.15 K, 80000 kPa, x2 = 0.1005", "value": "925.5 ± 0.8", "unit": "kg/m3"}, {"measurement": "mass density", "setting": "273.15 K, 80000 kPa, x2 = 0.2261", "value": "919.3 ± 0.8", "unit": "kg/m3"}, {"measurement": "mass density", "setting": "273.15 K, 80000 kPa, x2 = 0.2999", "value": "915.6 ± 0.8", "unit": "kg/m3"}, {"measurement": "mass density", "setting": "273.15 K, 80000 kPa, x2 = 0.3966", "value": "910.3 ± 0.8", "unit": "kg/m3"}, {"measurement": "mass density", "setting": "273.15 K, 80000 kPa, x2 = 0.5289", "value": "902.7 ± 0.8", "unit": "kg/m3"}, {"measurement": "mass density", "setting": "273.15 K, 80000 kPa, x2 = 0.6367", "value": "895.7 ± 0.8", "unit": "kg/m3"}, {"measurement": "mass density", "setting": "273.15 K, 80000 kPa, x2 = 0.7249", "value": "889.5 ± 0.8", "unit": "kg/m3"}, {"measurement": "mass density", "setting": "273.15 K, 80000 kPa, x2 = 0.7977", "value": "883.9 ± 0.8", "unit": "kg/m3"}, {"measurement": "mass density", "setting": "273.15 K, 80000 kPa, x2 = 0.9131", "value": "874.3 ± 0.8", "unit": "kg/m3"}, {"measurement": "mass density", "setting": "273.15 K, 90000 kPa, x2 = 0", "value": "934.2 ± 0.8", "unit": "kg/m3"}, {"measurement": "mass density", "setting": "273.15 K, 90000 kPa, x2 = 0.1005", "value": "929.4 ± 0.8", "unit": "kg/m3"}, {"measurement": "mass density", "setting": "273.15 K, 90000 kPa, x2 = 0.2261", "value": "923.2 ± 0.8", "unit": "kg/m3"}, {"measurement": "mass density", "setting": "273.15 K, 90000 kPa, x2 = 0.2999", "value": "919.6 ± 0.8", "unit": "kg/m3"}, {"measurement": "mass density", "setting": "273.15 K, 90000 kPa, x2 = 0.3966", "value": "914.3 ± 0.8", "unit": "kg/m3"}, {"measurement": "mass density", "setting": "273.15 K, 90000 kPa, x2 = 0.5289", "value": "906.7 ± 0.8", "unit": "kg/m3"}, {"measurement": "mass density", "setting": "273.15 K, 90000 kPa, x2 = 0.6367", "value": "899.7 ± 0.8", "unit": "kg/m3"}, {"measurement": "mass density", "setting": "273.15 K, 90000 kPa, x2 = 0.7249", "value": "893.6 ± 0.8", "unit": "kg/m3"}, {"measurement": "mass density", "setting": "273.15 K, 90000 kPa, x2 = 0.7977", "value": "888 ± 0.8", "unit": "kg/m3"}, {"measurement": "mass density", "setting": "273.15 K, 90000 kPa, x2 = 0.9131", "value": "878.4 ± 0.8", "unit": "kg/m3"}, {"measurement": "mass density", "setting": "273.15 K, 100000 kPa, x2 = 0", "value": "938 ± 0.8", "unit": "kg/m3"}, {"measurement": "mass density", "setting": "273.15 K, 100000 kPa, x2 = 0.1005", "value": "933.3 ± 0.8", "unit": "kg/m3"}, {"measurement": "mass density", "setting": "273.15 K, 100000 kPa, x2 = 0.2261", "value": "927.1 ± 0.8", "unit": "kg/m3"}, {"measurement": "mass density", "setting": "273.15 K, 100000 kPa, x2 = 0.2999", "value": "923.4 ± 0.8", "unit": "kg/m3"}, {"measurement": "mass density", "setting": "273.15 K, 100000 kPa, x2 = 0.3966", "value": "918.2 ± 0.8", "unit": "kg/m3"}, {"measurement": "mass density", "setting": "273.15 K, 100000 kPa, x2 = 0.5289", "value": "910.6 ± 0.8", "unit": "kg/m3"}, {"measurement": "mass density", "setting": "273.15 K, 100000 kPa, x2 = 0.6367", "value": "903.6 ± 0.8", "unit": "kg/m3"}, {"measurement": "mass density", "setting": "273.15 K, 100000 kPa, x2 = 0.7249", "value": "897.5 ± 0.8", "unit": "kg/m3"}, {"measurement": "mass density", "setting": "273.15 K, 100000 kPa, x2 = 0.7977", "value": "891.9 ± 0.8", "unit": "kg/m3"}, {"measurement": "mass density", "setting": "273.15 K, 100000 kPa, x2 = 0.9131", "value": "882.3 ± 0.9", "unit": "kg/m3"}, {"measurement": "mass density", "setting": "273.15 K, 120000 kPa, x2 = 0", "value": "945.2 ± 0.8", "unit": "kg/m3"}, {"measurement": "mass density", "setting": "273.15 K, 120000 kPa, x2 = 0.1005", "value": "940.6 ± 0.8", "unit": "kg/m3"}, {"measurement": "mass density", "setting": "273.15 K, 120000 kPa, x2 = 0.2261", "value": "934.5 ± 0.8", "unit": "kg/m3"}, {"measurement": "mass density", "setting": "273.15 K, 120000 kPa, x2 = 0.2999", "value": "930.8 ± 0.8", "unit": "kg/m3"}, {"measurement": "mass density", "setting": "273.15 K, 120000 kPa, x2 = 0.3966", "value": "925.6 ± 0.8", "unit": "kg/m3"}, {"measurement": "mass density", "setting": "273.15 K, 120000 kPa, x2 = 0.5289", "value": "918 ± 0.8", "unit": "kg/m3"}, {"measurement": "mass density", "setting": "273.15 K, 120000 kPa, x2 = 0.6367", "value": "911.1 ± 0.8", "unit": "kg/m3"}, {"measurement": "mass density", "setting": "273.15 K, 120000 kPa, x2 = 0.7249", "value": "905 ± 0.8", "unit": "kg/m3"}, {"measurement": "mass density", "setting": "273.15 K, 120000 kPa, x2 = 0.7977", "value": "899.4 ± 0.9", "unit": "kg/m3"}, {"measurement": "mass density", "setting": "273.15 K, 120000 kPa, x2 = 0.9131", "value": "889.9 ± 0.9", "unit": "kg/m3"}, {"measurement": "mass density", "setting": "273.15 K, 140000 kPa, x2 = 0", "value": "952 ± 0.8", "unit": "kg/m3"}, {"measurement": "mass density", "setting": "273.15 K, 140000 kPa, x2 = 0.1005", "value": "947.3 ± 0.8", "unit": "kg/m3"}, {"measurement": "mass density", "setting": "273.15 K, 140000 kPa, x2 = 0.2261", "value": "941.3 ± 0.8", "unit": "kg/m3"}, {"measurement": "mass density", "setting": "273.15 K, 140000 kPa, x2 = 0.2999", "value": "937.7 ± 0.8", "unit": "kg/m3"}, {"measurement": "mass density", "setting": "273.15 K, 140000 kPa, x2 = 0.3966", "value": "932.5 ± 0.8", "unit": "kg/m3"}, {"measurement": "mass density", "setting": "273.15 K, 140000 kPa, x2 = 0.5289", "value": "924.9 ± 0.8", "unit": "kg/m3"}, {"measurement": "mass density", "setting": "273.15 K, 140000 kPa, x2 = 0.6367", "value": "918 ± 0.8", "unit": "kg/m3"}, {"measurement": "mass density", "setting": "273.15 K, 140000 kPa, x2 = 0.7249", "value": "911.9 ± 0.9", "unit": "kg/m3"}, {"measurement": "mass density", "setting": "273.15 K, 140000 kPa, x2 = 0.7977", "value": "906.4 ± 0.9", "unit": "kg/m3"}, {"measurement": "mass density", "setting": "273.15 K, 140000 kPa, x2 = 0.9131", "value": "896.8 ± 0.9", "unit": "kg/m3"}, {"measurement": "viscosity", "setting": "293.15 K, 100 kPa, x2 = 0", "value": "0.888 ± 0.019", "unit": "mPa·s"}, {"measurement": "viscosity", "setting": "293.15 K, 100 kPa, x2 = 0.1002", "value": "0.898 ± 0.019", "unit": "mPa·s"}, {"measurement": "viscosity", "setting": "293.15 K, 100 kPa, x2 = 0.2327", "value": "0.949 ± 0.02", "unit": "mPa·s"}, {"measurement": "viscosity", "setting": "293.15 K, 100 kPa, x2 = 0.3", "value": "1.001 ± 0.021", "unit": "mPa·s"}, {"measurement": "viscosity", "setting": "293.15 K, 100 kPa, x2 = 0.3969", "value": "1.087 ± 0.023", "unit": "mPa·s"}, {"measurement": "viscosity", "setting": "293.15 K, 100 kPa, x2 = 0.637", "value": "1.483 ± 0.031", "unit": "mPa·s"}, {"measurement": "viscosity", "setting": "293.15 K, 100 kPa, x2 = 0.7975", "value": "1.975 ± 0.041", "unit": "mPa·s"}, {"measurement": "viscosity", "setting": "293.15 K, 100 kPa, x2 = 0.9131", "value": "2.464 ± 0.051", "unit": "mPa·s"}, {"measurement": "mass density", "setting": "293.15 K, 100 kPa, x2 = 0", "value": "875.1 ± 0.7", "unit": "kg/m3"}, {"measurement": "mass density", "setting": "293.15 K, 100 kPa, x2 = 0.1005", "value": "870.2 ± 0.7", "unit": "kg/m3"}, {"measurement": "mass density", "setting": "293.15 K, 100 kPa, x2 = 0.2261", "value": "863.7 ± 0.7", "unit": "kg/m3"}]}
